Several values for one entry are separate records, joined by “and”; a condition that tells them apart may be missing. Equal entries are not always repeated.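 Grown in 96-well plates, cells were treated for 48 hours with each compound at five concentrations. Insufficient inhibition: endpoint recorded as highest concentration tested. GI50 is the concentration that inhibits growth by half. At the TGI there is no net growth.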
Assays:
Assay in all cases: NCI anticancer screen, dose series, 48 h
A498 renal = system: A498 renal
M14 melanoma = system: M14 melanoma
MCF7 breast = system: MCF7 breast
HS 578T breast = system: HS 578T breast
HL-60(TB) leukemia = system: HL-60(TB) leukemia
SN12C renal = system: SN12C renal
HCT-116 colon = system: HCT-116 colon
UO-31 renal = system: UO-31 renal
OVCAR-5 ovarian = system: OVCAR-5 ovarian
U251 CNS = system: U251 CNS
HCT-15 colon = system: HCT-15 colon

Row | Structure (SMILES) | TGI (A498 renal) | TGI (M14 melanoma) | TGI (MCF7 breast) | TGI (HS 578T breast) | TGI (HL-60(TB) leukemia) | TGI (SN12C renal) | TGI (HCT-116 colon) | TGI (UO-31 renal) | TGI (OVCAR-5 ovarian) | TGI (U251 CNS) | TGI (HCT-15 colon) | GI50 (MCF7 breast)
1 | NC(=O)C1CCCN1C(=O)C(Cc1cnc[nH]1)NC(=O)C1CCCC1 (centres undefined) | > 100 µM | > 100 µM | > 100 µM | > 100 µM | > 100 µM | > 100 µM | > 100 µM | > 100 µM | > 100 µM | > 100 µM | > 100 µM | 
2 | Cc1cc(S(=O)(=O)Nc2n[nH]c(-c3ccc(Cl)cc3)n2)c(SSc2cc(Cl)c(C)cc2S(=O)(=O)Nc2n[nH]c(-c3ccc(Cl)cc3)n2)cc1Cl | 59.1 µM | > 100 µM | > 100 µM | > 100 µM | 48.5 µM | > 100 µM | > 100 µM | 81.9 µM | 86.9 µM | 78.6 µM | 69.1 µM | 
3 | NC1N=C(c2ccc(Cl)cc2)C2=C(N1)c1ccccc1CC2 (centres undefined) | > 100 µM | > 59.3 µM | > 46.8 µM | > 100 µM | 10.6 µM | > 100 µM | > 56.9 µM | > 88.7 µM | > 100 µM | > 100 µM | > 100 µM | 
4 | O=c1ccc2ccc(OP(=O)(O)O)cc2o1 | > 100 µM | > 100 µM | > 100 µM | > 100 µM | > 100 µM | > 100 µM | > 100 µM | > 100 µM | > 100 µM | > 100 µM | > 100 µM | 
5 | C=CCOC(=O)CC[C@H](NC(=O)[C@@H](CCC(F)(F)F)Cc1ccc(O)cc1)C(=O)OCC=C |  | 42.6 µM | 48.2 µM | > 100 µM | > 100 µM | > 100 µM | > 100 µM | > 100 µM | > 100 µM |  | > 100 µM | 
6 | COc1ccc(C2SC(N)=Nc3c2c(C)nn3C(=O)c2ccccc2O)cc1OC (centres undefined) | > 10 µM | > 10 µM | > 10 µM | 5.11 µM | > 10 µM | > 10 µM | 7.47 µM | > 10 µM | > 10 µM | > 10 µM | > 10 µM | 
7 | N#CC12C(=O)NC(=O)C1(C#N)C1C=CC2CC1 (centres undefined) |  | > 100 µM | > 100 µM | > 100 µM | > 100 µM | > 100 µM | > 100 µM | > 100 µM | > 100 µM | > 100 µM | > 100 µM | 
8 | C=CCN(c1cc(OC)c(NC(C)=O)cc1[N+](=O)[O-])S(C)(=O)=O | > 100 µM | > 100 µM | > 100 µM | > 100 µM | > 100 µM | > 100 µM | > 100 µM | > 100 µM | > 100 µM | > 100 µM | > 100 µM | 
9 | CC(=O)OCCn1cnc2c(NCC=C(C)C)ncnc21 | > 100 µM | > 100 µM | > 100 µM | > 100 µM | > 100 µM | > 100 µM | > 100 µM | > 100 µM | > 100 µM |  |  | 
10 | Cc1cc(NC2=CC(=O)C(=O)c3ccccc32)no1 | 33.1 µM | 28.3 µM | 7.66 µM | 40.9 µM | > 29.6 µM | 7.1 µM | 34.4 µM | 20.4 µM | 18.1 µM | 13.4 µM | 19 µM | 
11 | O=C(Nc1ccccc1)c1cc(S(=O)(=O)Nc2n[nH]c(=O)n2-c2ccccc2)c(S)cc1Cl | > 100 µM | > 100 µM | > 100 µM | > 100 µM | > 100 µM | > 100 µM | > 100 µM | > 100 µM | > 100 µM | > 100 µM | > 100 µM | 
12 | Nc1nc(Cl)cc(NCC2(O)CCC2)n1 | > 100 µM |  | > 100 µM | > 100 µM | > 100 µM | > 100 µM | > 100 µM | > 100 µM | > 100 µM | > 100 µM | > 100 µM | 
13 | CC1OC(OC2C(OC(=O)[C@]34CCC(C)(C)C[C@H]3C3=CC[C@@H]5[C@@]6(C)CC[C@H](OC7OC(C(=O)O)C(O)C(O)C7O)C(C)(C)[C@@H]6CC[C@@]5(C)[C@]3(C)C[C@H]4O)OCC(O)C2O)C(O)C(O)C1OC1OCC(O)C(O)C1O (some centres undefined) | 6.22 µM and 3.63 µM | 28.1 µM and 21.6 µM | 29.4 µM and 17.8 µM | 39.5 µM and 39.3 µM | 30.5 µM and 26.9 µM | 16 µM and 6.05 µM | 28.1 µM and 22.1 µM | 24.1 µM and 20.1 µM | 28.5 µM and 23 µM | 29.1 µM and 24.3 µM | 31.6 µM and 33.7 µM | 14.4 µM and 5.24 µM
14 | N#C/C(=C\c1ccc(F)cc1)c1nc(-c2cc3ccccc3oc2=O)cs1 |  | 50.7 µM | > 100 µM | 56.7 µM | > 100 µM | > 100 µM | > 100 µM | 97.9 µM | > 100 µM | 61.4 µM | > 100 µM | 
15 | OC1(C(Sc2cc(C(F)(F)F)cc(C(F)(F)F)c2)Sc2cc(C(F)(F)F)cc(C(F)(F)F)c2)C=CCCC1 (centres undefined) | 4.58 µM | 6.53 µM | 4.58 µM | 13.3 µM | 3.97 µM | 6.77 µM | 6.74 µM | 3.66 µM | 6.6 µM |  | 4.13 µM | 
16 | CC1CC(N)=C(C#N)C1(C#N)C#N (centres undefined) | > 100 µM | > 100 µM | > 100 µM | > 100 µM | > 100 µM | > 100 µM | > 100 µM | > 100 µM | > 100 µM | > 100 µM | > 100 µM | 
17 | O=c1oc2ccc3ccccc3c2cc1-c1nnc(Nc2ccccc2)s1 | 22.4 µM | > 100 µM | > 100 µM | > 100 µM |  | > 100 µM | 52.4 µM | 39.4 µM | > 100 µM | 21.3 µM | > 100 µM | 
18 | CCN1CCC(O)(c2ccc(Oc3ccc(Cl)cc3)cc2)C(C(=O)c2ccc(Oc3ccc(Cl)cc3)cc2)C1 (centres undefined) | 23.4 µM | 28.3 µM | 19.9 µM | 58.5 µM | 4.46 µM | 26.9 µM | 12.6 µM | 28.1 µM | 26.4 µM |  | 19.9 µM | 
19 | COc1cc(OC)cc(OCc2nc3cc(C(F)(F)F)ccc3nc2-c2ccccc2)c1 |  | > 100 µM | > 100 µM | > 100 µM | > 100 µM | > 100 µM | > 100 µM | > 100 µM | > 100 µM | > 100 µM | > 100 µM | 
20 | CN=C1Nc2ccccc2C(=O)N2CSCC12 (centres undefined) | > 100 µM | > 100 µM | > 100 µM | > 100 µM |  | > 100 µM | > 100 µM | > 100 µM | > 100 µM | > 100 µM | > 100 µM | 

From PubChem BioAssay (NCI)
